Data from US20170306388A1, “Method for the Identification of Inhibitors and Activators of Thymidylate Kinases” (Carnegie Mellon University, priority 2016, published 2017).

Columns and labels:
[1] = tested on: CaTMPK; assay: NADH coupled enzyme activity assay (pyruvate kinase/lactate dehydrogenase) of CaTMPK; format: biochemical, Candida albicans; settings: substance as phosphate acceptor, NADH decrease at 340 nm, pH 7.4
Procedure: The NADH coupled enzyme activity assay (Blondin, C., et al. (1994). Improved spectrophotometric assay of nucleoside monophosphate kinase activity using the pyruvate kinase/lactate dehydrogenase coupling system. Anal. Biochem 220, 219-221) is a well established assay to monitor the enzyme activity of thymidylate kinases. The assay was used to measure the activity of CaTMPK with the different phosphate acceptors (dTMP, AZTMP or dGMP). The reaction mixture consisted of 50 mM Tris-HCl (pH 7.4), 50 mM KCl, 10 mM MgCl2, 0.5 mM phosphoenolpyruvate, 0.15 mM NADH, 5 units/mL each of pyruvate kinase and lactate dehydrogenase. The reaction was initiated by adding the enzyme and the reaction rate was measured by monitoring the decrease of NADH concentration at 340 nm.

[2] = tested on: CaTMPK; assay: One-dimensional proton NMR activity assay of CaTMPK; format: biochemical, Candida albicans; settings: substance as phosphate acceptor (1 mM), 1 mM ATP as phosphate donor, pH 7.4
Source text: Three different methods to assay for TMK activity have been reported in the literature. The first method uses isotope labeled [^14C] dTMP as substrate and utilizes the separation of dTMP and dTDP by thin-layer chromatography (TLC). The next method is a coupled enzymatic assay which involves the use of pyruvate kinase and lactate dehydrogenase to couple the production of ADP (a product of TMK activity) to the oxidation of NADH to NAD^+ which can be monitored spectrophotometrically at 340 nm. The third protocol involves the use of luciferin/luciferase to measure the concentration of unreacted ATP, or the amount to ADP in the TMK reaction mixture. All of these assays have inherent problems, ranging from the use of radioactivity to the potential inhibition of the coupling enzymes. Consequently, a simple one step assay to monitor the conversion of TMP to TDP was developed. The assay relies on the difference in the pyrimidine H6 proton chemical shifts of TMP and TDP (see FIG. 4). […] The new assay of the present invention also allows for the near-continuous measurement of product production, while current high-throughput assays are quench-stop type assays.
One-dimensional proton (^1H) NMR was used to monitor the activity of CaTMPK. The assay depends on the change in the chemical shift of the H6 proton (dTMP, AZTMP) or the H8 proton (dGMP) of the nucleobases upon the addition of the second phosphate group. The assay reaction included 50 mM Tris-HCl (pH 7.4), 50 mM KCl, 10 mM MgCl2, 1 mM ATP as the phosphate donor, 1 mM phosphate acceptor (dTMP, AZTMP or dGMP) and 10% D20. The reaction was initiated by the addition of CaTMPK to the reaction mix. A series of ^1H NMR spectra were acquired and the area (or height) of the proton line corresponding to the monophosphate forms of the acceptor molecule was plotted against time to calculate the initial rates of catalysis for each of the three substrates.

In the case of `Cc1cn([C@H]2C[C@H](N=[N+]=[N-])[C@@H](COP(=O)(O)O)O2)c(=O)[nH]c1=O` [AZTMP, azidothymidine monophosphate], the “kcat, coupled enzyme assay” value [1] is reported as 0.305 s⁻¹ and the “kcat, nmr assay” value [2] is reported as 0.533 s⁻¹.

With `Nc1nc2c(ncn2[C@H]2C[C@H](O)[C@@H](COP(=O)(O)O)O2)c(=O)[nH]1` [dGMP] the “kcat, coupled enzyme assay” value [1] was 0.0083 s⁻¹ and the “kcat, nmr assay” value [2] was 0.00617 s⁻¹.

For `Cc1cn([C@H]2C[C@H](O)[C@@H](COP(=O)(O)O)O2)c(=O)[nH]c1=O` [dTMP, deoxythymidine monophosphate], the “kcat, coupled enzyme assay” value [1] was 6.85 s⁻¹ and the “kcat, nmr assay” value [2] was 8.33 s⁻¹.
